Results: patent US20250127790A1, “COMBINATION THERAPY USING VPS34 INHIBITORS” (Deciphera Pharmaceuticals, LLC, priority 2021, published 2025)

How the values were obtained:
[1] = tested on: 786-O renal cell carcinoma cells; test: qRT-PCR with siRNA knockdown of STING pathway genes, 786-O cells; format: cell-based, Human; details: 24 h, vs compound alone; for IFNB1, CCL5 and CXCL10 expression with siRNA knockdown of CGAS / IRF7 expression with siRNA knockdown of CGAS: siCGAS; for IFNB1, CCL5 and CXCL10 expression with siRNA knockdown of CGAS / IRF7 expression with siRNA knockdown of CGAS / IFNB1, CCL5 and CXCL10 expression with siRNA knockdown of STING / IRF7 expression with siRNA knockdown of STING: 2 μM; for IFNB1, CCL5 and CXCL10 expression with siRNA knockdown of STING / IRF7 expression with siRNA knockdown of STING: siSTING; for IFNB1 expression with siRNA knockdown of TBK1 / IRF7, CCL5 and CXCL10 expression with siRNA knockdown of TBK1: siTBK1, 2 μM
[2] = tested on: Me30966 melanoma cells; test: qRT-PCR with siSTING, Me30966 cells; format: cell-based, Human; details: 2 μM, 24 h; for increase in CCL5 mRNA expression / increase in CXCL10 mRNA expression / increase in IFNB1 mRNA expression: siSCR
Procedure: (§1) Me30966 cells were transfected with siSCR or siSTING. After 48 h, cells were treated with DMSO or 2 μM of VPS34 inhibitors (Compound 1 or Compound 2) for 24 h. Cells were washed with PBS and RNA was isolated using the PureLink RNA kit (#12183018A, Thermo Fisher Scientific) according to the manufacturer's protocol. Genomic DNA was removed using DNA-binding columns (RNeasy plus kit, #74134, Qiagen) and/or DNase treatment (#12185010, Thermo Fisher Scientific). RNA was quantified using NanoDrop (Thermo Fisher Scientific) and 50 ng/μL RNA was used for cDNA synthesis with SuperScript IV VILO Master Mix (#11756050, Thermo Fisher Scientific). Quantitative RT-PCR (qRT-PCR) was run with diluted cDNA (1:25 or 1:12.5), PowerUp SYBR Green Master Mix (#A25741, Thermo Fisher Scientific), and 200 nM primers (see below) on a CFX Connect RT-PCR system (BioRad). Data was analyzed using the ΔΔCT method. Results are mean±SEM of three independent experiments.

[3] = tested on: 786-O renal cell carcinoma cells; test: qRT-PCR with siRNA knockdown of STING pathway genes, 786-O cells; format: cell-based, Human; details: 2 μM, 24 h
Procedure: as §1, with “Quantitative reverse-transcriptase polymerase chain reaction (RT-PCR) assay 786-O cells were grown in RPMI-1640 medium containing 10% fetal bovine serum. Cells were then incubated for 2 days at 37 degrees Celsius, 5% CO2, and 95% humidity. A498” for “Me30966”, “scrambled siRNA control (siSCR)” for “siSCR”, “siRNA targeting TBK1 (siTBK1), STING (siSTING) or CGAS (siCGAS).” for “siSTING.”, “h” for “h,”, “inhibitor” for “inhibitors”

[4] = tested on: YUMM 1.7 melanoma cells; test: Cytokine secretion assay, combination with cGAMP, YUMM1.7 cells; format: cell-based, mouse; details: 24 hours, 5 μM Compound 1 or 10 μM Compound 2, 10 mg/ml cGAMP
Procedure: YUMM1.7 cells were treated for 24 hours with DMSO or VPS34 inhibitors (5 μM Compound 1 or 10 μM Compound 2) in combination with 10 mg/ml STING agonist cGAMP (green bars). Cells were washed with PBS and RNA was isolated using the PureLink RNA kit (#12183018A, Thermo Fisher Scientific) according to the manufacturer's protocol. Genomic DNA was removed using DNA-binding columns (RNeasy plus kit, #74134, Qiagen) and/or DNase treatment (#12185010, Thermo Fisher Scientific). RNA was quantified using NanoDrop (Thermo Fisher Scientific) and 50 ng/μL RNA was used for cDNA synthesis with SuperScript IV VILO Master Mix (#11756050, Thermo Fisher Scientific). Quantitative RT-PCR (qRT-PCR) was run with diluted cDNA (1:25 or 1:12.5), PowerUp SYBR Green Master Mix (#A25741, Thermo Fisher Scientific), and 200 nM primers (see below) on a CFX Connect RT-PCR system (BioRad). Data was analyzed using the ΔΔCT method. Results are mean±SEM of three independent experiments.
Cell culture medium was centrifuged at 1600 rpm for 10 min at 4° C. and obtained supernatant stored at −80° C. Cytokine levels were quantified using following Meso Scale Discovery (MSD) assays: mouse U-PLEX RANTES/CCL5 (#K152A2K) and U-PLEX IP-10/CXCL10 (#K152UFK). Assays were run on the SECTOR Quickplex Imager and analyzed using Discovery Workbench version 4.0 (MSD).

[5] = tested on: Renca renal cell carcinoma cells; test: IncuCyte live-cell imaging, cell confluence, Renca cells; format: cell-based; details: 2 μM Compound 1, ADU-S100, up to 72 hours
Procedure: Renca cells were treated with a combination of DMSO or 2 μM Compound 1 alone or in combination with STING agonist ADU-S100 for 24 hours. Treatment with 1 μM staurosporine was used as a positive control for apoptosis induction. To assess cell proliferation, 1000 cells/well were plated in 96-well plates. After 24 h, cells were treated with compounds in 100 μL complete medium. Phase-contrast images (10×) were acquired every 3 h for 24-72 h and cell confluence (%) was calculated using the IncuCyte S3 live-cell analysis system (Sartorius). For monitoring apoptosis, 5 μM of IncuCyte Caspase-3/7 Green Dye (#4440, Sartorius) was added to the medium at the time of treatment. Both phase-contrast and green fluorescent images were captured. Caspase 3/7 induction was calculated by counting green fluorescent objects per mm^2 and dividing it by the percentage of cell confluency.

Compound	IFNB1, CCL5 and CXCL10 expression with siRNA knockdown of CGAS [1]	IRF7 expression with siRNA knockdown of CGAS [1]	IFNB1, CCL5 and CXCL10 expression with siRNA knockdown of STING [1]	IRF7 expression with siRNA knockdown of STING [1]	IFNB1 expression with siRNA knockdown of TBK1 [1]	IRF7, CCL5 and CXCL10 expression with siRNA knockdown of TBK1 [1]	increase in CCL5 mRNA expression [2] [fold]	increase in CXCL10 mRNA expression [2] [fold]	increase in IFNB1 mRNA expression [2] [fold]	CCL5 mRNA increase with siSTING [2]	CXCL10 mRNA increase with siSTING [2]	IFNB1 mRNA increase with siSTING [2]	increase in mRNA expression of CCL5 [3] [fold]	increase in mRNA expression of CXCL10 [3] [fold]	increase in mRNA expression of IFNB1 [3] [fold]	increase in mRNA expression of IRF7 [3] [fold]	CCL5 protein secretion [4]	CXCL10 protein secretion [4]	cell confluence [5]
C[C@@H]1COCCN1c1cc(=O)n2c(n1)N(Cc1cncc(Cl)c1)[C@H](C(F)(F)F)CC2 [Compound 2, (S)-9-((5-chloropyridin-3-yl)methyl)-2-((R)-3-methylmorpholino)-8-(trifluoromethyl)-6,7,8,9-tetrahydro-4H-pyrimido[1,2-a]pyrimidin-4-one]	complete ablation	significant decreases	complete ablation	significant decreases	near complete ablation	modest decreases	~10	~10	~5	abolished	abolished	abolished	~4	~5	~4	~3	increased	increased	
Nc1ncnc2c1ncn2[C@@H]1O[C@@H]2COP(=O)([S-])O[C@@H]3[C@H](O)[C@@H](COP([O-])(=S)O[C@H]2[C@H]1O)O[C@H]3n1cnc2c(N)ncnc21.[Na+].[Na+] (some centres unmarked) [ADU-S100, reference compound]																			no effect
C[C@@H]1COCCN1c1cc(N2CCCC[C@@H]2C(F)(F)F)[nH]c(=O)c1 [Compound 1, 4-((R)-3-methylmorpholino)-6-((R)-2-(trifluoromethyl)piperidin-1-yl)pyridin-2(1H)-one]	complete ablation	significant decreases	complete ablation	significant decreases	near complete ablation	modest decreases	~10	~10	~5	abolished	abolished	abolished	> 3	~5	> 5	> 2	increased	increased	decreased
